# Experimental data published in patent publication US12629385B2, “Stable AST-3424 injection preparation and preparation method” (OBI PHARMA, INC., priority 2019, dated 2026).
# Legend:
# [1] = Study on solution stability of AST-3424 in different solutions (HPLC content, pH); assay type: physicochemical
# Method: Approximate 107.32 mg of AST-3424 (50% v/v, ethanol) was measured, and put in 50-ml volumetric flasks, to which solvents (organic solvents, buffer solutions, or purified water) were added to the scale, respectively. At each predetermined time point, 1 ml of the sample was measured for HPLC analysis. If API was stable in different pH solutions, the sampling time would be extended, e.g., 5 days or longer.
# (§1) For samples used for the assay in the solubility study, about 1 ml of the culture medium was measured, then the resultant was centrifuged at 10000 rpm for 10 min, and the clear solution in […] was collected for HPLC analysis. For the study on solution stability, the samples could be directly injected into HPLC for analysis.
# (§2) Content determination by HPLC method: AST-3424 was used as an external standard for quantitation.
# UVDAD detector: wavelength: 230 nm. C18 column, column temperature: 25° C.
# • A: 10 mmol/L ammonium acetate solution obtained by dissolving ammonium acetate in a mixed solvent of 95% water and 5% acetonitrile by volume; • B: 8 mmol/L ammonium acetate solution obtained by dissolving ammonium acetate in a mixed solvent of 95% acetonitrile and 5% water by volume;
# Gradient elution was performed.
# [2] = Solubility test of AST-3424 at 25° C. (shaking incubator, HPLC content, pH); assay type: physicochemical; settings: for Content (solubility study): 25° C.
# Method: An appropriate amount of AST-3424 (hereinafter referred to as the active pharmaceutical ingredient or API) was measured, and put in a suitable container containing 40 ml of the above solution (20 ml for an organic solvent) until there were excessive AST-3424 oil droplets in the solution.
# The samples were placed in a constant-temperature shaking incubator, the temperature of which was maintained at 25° C. The samples were shaken at an appropriate speed (100 rpm). Sampling was carried out at each predetermined time point as listed in Table 1, and the pH was examined. Then, the samples were centrifuged (10000 rpm, 10 min), and diluted to a concentration suitable for HPLC analysis (note: accurately recording the dilution ratio after the test) by adding the corresponding solution or organic solvent (dissolving API for solubility study), so as to obtain solubility data.
# as §1, §2
# According to the results of solution stability, AST-3424 was very unstable in the pH4.5 acetate buffer. Therefore, the solubility was tested in the pH6.8 phosphate buffer, the pH7.4 phosphate buffer, the pH10.0 alkaline borate buffer, and the purified water. An appropriate amount of AST-3424 was weighed and put into 40 mL of medium (ethanol/propylene glycol: 8 mL, 50:50V/V) until there were excessive floccules in the solution. If the solubility of API in the aqueous solution was greater than 2% (20 mg/ml), there was no need to add more API.
compound,measurement,setting,value
"C[C@H](OP(=O)(N1CC1)N1CC1)c1ccc([N+](=O)[O-])c(Oc2cccc(C(=O)N(C)C)c2)c1 [AST-3424, (S)-1-(3-(3-N,N-dimethylaminocarbonyl)phenoxyl-4-nitrophenyl)-1-ethyl-N,N′-bis(ethylene)phosphoramidate]",pH value,"[1]; AST-3424 solution in pH 4.5 acetate buffer, 0 h",4.497
same,pH value,"[1]; AST-3424 solution in pH 4.5 acetate buffer, 72 h",4.477
same,pH value,"[1]; AST-3424 solution in pH 6.8 phosphate buffer, 0 h",6.815
same,pH value,"[1]; AST-3424 solution in pH 6.8 phosphate buffer, 72 h",6.855
same,pH value,"[1]; AST-3424 solution in pH 7.4 phosphate buffer, 0 h",7.481
same,pH value,"[1]; AST-3424 solution in pH 7.4 phosphate buffer, 72 h",7.534
same,pH value,"[1]; AST-3424 solution in pH 10.0 alkaline borate buffer, 0 h",9.984
same,pH value,"[1]; AST-3424 solution in pH 10.0 alkaline borate buffer, 72 h",10.023
same,pH value,"[1]; AST-3424 solution in purified water, 0 h",5.152
same,pH value,"[1]; AST-3424 solution in purified water, 72 h",6.435
same,Content,"[1]; Ethanol/propylene glycol (50:50, v/v), 0 h, room temperature",1.295 mg/mL
same,Content,"[1]; Ethanol/propylene glycol (50:50, v/v), 1 h, room temperature",1.287 mg/mL
same,Content,"[1]; Ethanol/propylene glycol (50:50, v/v), 4 h, room temperature",1.287 mg/mL
same,Content,"[1]; Ethanol/propylene glycol (50:50, v/v), 8 h, room temperature",1.287 mg/mL
same,Content,"[1]; Ethanol/propylene glycol (50:50, v/v), 24 h, room temperature",1.302 mg/mL
same,Content,"[1]; Ethanol/propylene glycol (50:50, v/v), 48 h, room temperature",1.284 mg/mL
same,Content,"[1]; Ethanol/propylene glycol (50:50, v/v), 72 h, room temperature",1.275 mg/mL
same,Content,"[1]; Ethanol, 0 h, room temperature",1.238 mg/mL
same,Content,"[1]; Ethanol, 1 h, room temperature",1.280 mg/mL
same,Content,"[1]; Ethanol, 4 h, room temperature",1.246 mg/mL
same,Content,"[1]; Ethanol, 8 h, room temperature",1.240 mg/mL
same,Content,"[1]; Ethanol, 24 h, room temperature",1.240 mg/mL
same,Content,"[1]; Ethanol, 48 h, room temperature",1.278 mg/mL
same,Content,"[1]; Ethanol, 72 h, room temperature",1.236 mg/mL
same,Content,"[1]; Purified water, 0 h, room temperature",1.186 mg/mL
same,Content,"[1]; Purified water, 1 h, room temperature",1.126 mg/mL
same,Content,"[1]; Purified water, 4 h, room temperature",1.056 mg/mL
same,Content,"[1]; Purified water, 8 h, room temperature",1.005 mg/mL
same,Content,"[1]; Purified water, 24 h, room temperature",0.918 mg/mL
same,Content,"[1]; Purified water, 48 h, room temperature",0.860 mg/mL
same,Content,"[1]; Purified water, 72 h, room temperature",0.810 mg/mL
same,Solution stability,[1]; pH4.5 acetate buffer,very unstable
same,Content,"[1]; pH 4.5 acetate buffer, 0 h, room temperature",0.673 mg/mL
same,Content,"[1]; pH 4.5 acetate buffer, 1 h, room temperature",0.413 mg/mL
same,Content,"[1]; pH 4.5 acetate buffer, 4 h, room temperature",0.218 mg/mL
same,Content,"[1]; pH 4.5 acetate buffer, 8 h, room temperature",0.093 mg/mL
same,Content,"[1]; pH 4.5 acetate buffer, 24 h, room temperature",0.013 mg/mL
same,Content,"[1]; pH 6.8 phosphate buffer, 0 h, room temperature",1.202 mg/mL
same,Content,"[1]; pH 6.8 phosphate buffer, 1 h, room temperature",1.200 mg/mL
same,Content,"[1]; pH 6.8 phosphate buffer, 4 h, room temperature",1.193 mg/mL
same,Content,"[1]; pH 6.8 phosphate buffer, 8 h, room temperature",1.185 mg/mL
same,Content,"[1]; pH 6.8 phosphate buffer, 24 h, room temperature",1.168 mg/mL
same,Content,"[1]; pH 6.8 phosphate buffer, 48 h, room temperature",1.145 mg/mL
same,Content,"[1]; pH 6.8 phosphate buffer, 72 h, room temperature",1.102 mg/mL
same,Solution stability,[1]; pH7.4 phosphate buffer,stable
same,Content,"[1]; pH 7.4 phosphate buffer, 0 h, room temperature",1.267 mg/mL
same,Content,"[1]; pH 7.4 phosphate buffer, 1 h, room temperature",1.266 mg/mL
same,Content,"[1]; pH 7.4 phosphate buffer, 4 h, room temperature",1.266 mg/mL
same,Content,"[1]; pH 7.4 phosphate buffer, 8 h, room temperature",1.262 mg/mL
same,Content,"[1]; pH 7.4 phosphate buffer, 24 h, room temperature",1.262 mg/mL
same,Content,"[1]; pH 7.4 phosphate buffer, 48 h, room temperature",1.249 mg/mL
same,Content,"[1]; pH 7.4 phosphate buffer, 72 h, room temperature",1.228 mg/mL
same,Content,"[1]; pH 10.0 (alkaline borate buffer), 0 h, room temperature",1.265 mg/mL
same,Content,"[1]; pH 10.0 (alkaline borate buffer), 1 h, room temperature",1.265 mg/mL
same,Content,"[1]; pH 10.0 (alkaline borate buffer), 4 h, room temperature",1.261 mg/mL
same,Content,"[1]; pH 10.0 (alkaline borate buffer), 8 h, room temperature",1.258 mg/mL
same,Content,"[1]; pH 10.0 (alkaline borate buffer), 24 h, room temperature",1.261 mg/mL
same,Content,"[1]; pH 10.0 (alkaline borate buffer), 48 h, room temperature",1.257 mg/mL
same,Content,"[1]; pH 10.0 (alkaline borate buffer), 72 h, room temperature",1.242 mg/mL
same,Time for which API was stable in solution,"[1]; room temperature, ethanol, ethanol/propylene glycol=1/1, pH7.4 and pH10.0 buffer solutions",at least 72 h
same,Solution stability,"[1]; room temperature, pH4.5 solution and water",unstable
same,Time for which API was stable in solution,"[1]; room temperature, pH6.8 solution",at least 24 h
same,Solution stability,[1]; water and pH6.8 phosphate buffer,relatively poor stability
same,Content (solubility study),"[2]; Ethanol/propylene glycol (50:50, v/v), 1 h",271.28 mg/mL
same,Content (solubility study),"[2]; Ethanol/propylene glycol (50:50, v/v), 8 h",301.33 mg/mL
same,Content (solubility study),"[2]; Ethanol/propylene glycol (50:50, v/v), 24 h",298.85 mg/mL
same,"Solubility, description of terms","[2]; alcohol solvents such as ethanol/propylene glycol (50:50, v/v)",Freely soluble
same,pH value (solubility study),"[2]; excess AST-3424 in pH 6.8 phosphate buffer, 1 h",6.856
same,pH value (solubility study),"[2]; excess AST-3424 in pH 6.8 phosphate buffer, 4 h",6.837
same,pH value (solubility study),"[2]; excess AST-3424 in pH 6.8 phosphate buffer, 8 h",6.855
same,pH value (solubility study),"[2]; excess AST-3424 in pH 6.8 phosphate buffer, 24 h",6.841
same,pH value (solubility study),"[2]; excess AST-3424 in pH 6.8 phosphate buffer, 48 h",6.860
same,pH value (solubility study),"[2]; excess AST-3424 in pH 7.4 phosphate buffer, 1 h",7.477
same,pH value (solubility study),"[2]; excess AST-3424 in pH 7.4 phosphate buffer, 4 h",7.462
same,pH value (solubility study),"[2]; excess AST-3424 in pH 7.4 phosphate buffer, 8 h",7.475
same,pH value (solubility study),"[2]; excess AST-3424 in pH 7.4 phosphate buffer, 24 h",7.455
same,pH value (solubility study),"[2]; excess AST-3424 in pH 7.4 phosphate buffer, 48 h",7.482
same,pH value (solubility study),"[2]; excess AST-3424 in pH 10.0 alkaline borate buffer, 1 h",9.998
same,pH value (solubility study),"[2]; excess AST-3424 in pH 10.0 alkaline borate buffer, 4 h",9.980
same,pH value (solubility study),"[2]; excess AST-3424 in pH 10.0 alkaline borate buffer, 8 h",9.971
same,pH value (solubility study),"[2]; excess AST-3424 in pH 10.0 alkaline borate buffer, 24 h",9.932
same,pH value (solubility study),"[2]; excess AST-3424 in pH 10.0 alkaline borate buffer, 48 h",9.952
same,pH value (solubility study),"[2]; excess AST-3424 in purified water, 1 h",5.004
same,pH value (solubility study),"[2]; excess AST-3424 in purified water, 4 h",5.651
same,pH value (solubility study),"[2]; excess AST-3424 in purified water, 8 h",5.971
same,pH value (solubility study),"[2]; excess AST-3424 in purified water, 24 h",6.378
same,pH value (solubility study),"[2]; excess AST-3424 in purified water, 48 h",6.512
same,"Solubility (initial investigation, words)","[2]; methanol, propanol, butanol, ethylene glycol, propylene glycol, glycerol, 1,3-butanediol, 1,2-butanediol",good solubility
same,Content (solubility study),"[2]; pH 6.8 (phosphate buffer), 4 h",22.92 mg/mL
same,Content (solubility study),"[2]; pH 6.8 (phosphate buffer), 8 h",23.03 mg/mL
same,pH of the solutions of API at different time points,"[2]; pH6.8, pH7.4 and pH10.0 media",remained unchanged
same,Content (solubility study),"[2]; pH 7.4 (phosphate buffer), 1 h",23.65 mg/mL
same,Content (solubility study),"[2]; pH 7.4 (phosphate buffer), 4 h",23.47 mg/mL
same,Content (solubility study),"[2]; pH 7.4 (phosphate buffer), 8 h",23.56 mg/mL
same,Content (solubility study),"[2]; pH 7.4 (phosphate buffer), 24 h",23.65 mg/mL
same,Content (solubility study),"[2]; pH 10.0 (alkaline borate buffer), 1 h",23.50 mg/mL
same,Content (solubility study),"[2]; pH 10.0 (alkaline borate buffer), 4 h",23.56 mg/mL
same,Content (solubility study),"[2]; pH 10.0 (alkaline borate buffer), 8 h",23.48 mg/mL
same,Content (solubility study),"[2]; pH 10.0 (alkaline borate buffer), 24 h",23.49 mg/mL
same,"Solubility, description of terms","[2]; water, pH6.8 phosphate buffer, pH7.4 phosphate buffer, pH10.0 alkaline borate buffer",sparingly soluble
